The results in this text go back to patent publication USRE49351E1, “Cytoprotective agent” (Biogen MA Inc., priority 2009, dated 2023).

What all share (type): in vivo
One experiment has as its system TNF-α. In words: Real time RT-PCR of inflammation parameter TNF-α in brain of mouse cerebral infarction model. The conditions noted are these: 10 mg/kg, ipsilesional (right) brain at 24 h, mean ± SE, n=6. How it is done:
(§1) Using the Mouse Cerebral Infarction model changes of parameters related to inflammation among the triprenyl phenol compound (10 mg/kg) administration groups, the alteplase (10 mg/kg) administration groups, and the alteplase (10 mg/kg) and aspirin (10 mg/kg) combined administration group were evaluated by a real time RT-PCR method. As the parameters IL-1β, TNF-α nd IL-6 were selected, which were typical parameters related to inflammation.
(§2) The administrations of SMTP-7 (10 mg/kg) and alteplase (10 mg/kg) were initiated 1 hour or 3 hours after the initiation of ischemia. The administration method was same as Example 3.
(§3) The combined administration of alteplase (10 mg/kg) and aspirin (10 mg/kg) was initiated 3 hours after the initiation of ischemia. Alteplase was administered same as in Example 3, and aspirin was administered by a bolus intravenous injection into the femoral vein.
(§4) The administrations of SMTP-6, SMTP-22, SMTP-25, SMTP-43 and SMTP-44D were initiated 1 hour after the initiation of ischemia. The administration method was same as Example 5.
(§5) After 24 hours of the initiation of the operation, a Krebs-HEPES buffer was perfused from the heart and then the brain was extirpated.
(§6) After preparing brain slices, the fourth slice was divided to the left brain and the right brain, and homogenized respectively with 1 mL of TRIZOL (registered trademark) reagent (Invitrogen). After incubating at room temperature for 5 min, adding chloroform (0.2 mL), and mixing for 15 sec, incubation was carried out at room temperature for 3 min. The samples were centrifuged at 4° C. for 15 min at 12,000×g.
(§7) Since RNA moved to a water layer, the water layer was collected and, after addition of 0.5 mL of isopropyl alcohol, followed by incubation at room temperature for 10 min, centrifuged at 4° C. for 10 min at 12,000×g. Since a pellet was formed in a tube after the centrifugation, the supernatant was removed, and 1 mL of 75% ethanol was added followed by stirring to wash the pellet. The mixture was then centrifuged at 4° C. for 5 min at 7,500×g. After removing again the supernatant, being left for natural drying for 8 min, the pellet containing the RNA was dissolved in 100 μL of RNase-free water. cDNA was produced by reverse transcription of the RNA using a SuperScript (registered trademark) VILOTM cDNA Synthesis Kit (Invitrogen) by a Thermal Cycler 2720 (Applied Biosystems). More particularly, 4 μL of 5×VILOTM Reaction Mix, 2 μL of 10× SuperScript (registered trademark) Enzyme Mix, and 1 μg of each RNA were mixed and diluted to 20 μL with RNase-free water.
(§8) Reverse transcription was conducted using the above samples under the following conditions. After reacting at 25° C. for 10 min, at 42° C. for 60 min, and at 85° C. for 5 min, the product was stored at 4° C. With the cDNA as a template real time RT-PCR was carried out by ABI PRISM 7000 using SYBR (registered trademark) GreenERTM qPCR SuperMix for ABI PRISM (registered trademark; Invitrogen). […]
(§9) Real time RT-PCR was conducted using the above samples under the following conditions. […] Changes of the respective parameters were determined by a calibration curve method. β-actin was measured as an internal control, and the respective parameters were calculated as a relative value based on the β-actin. […]

The next experiment has as its system IL-1β. In words: Real time RT-PCR of inflammation parameter IL-1β in brain of mouse cerebral infarction model. To be noted: 10 mg/kg, ipsilesional (right) brain at 24 h, mean ± SE, n=6. How it is done: as §1, §2, §3, §4, §5, §6, §7, §8, §9
Experiment [1] deals with mouse cerebral infarction model. In words: Mouse cerebral infarction model: infarction area percentage, neurological symptom, edema percentage. The conditions noted are these: evaluated 24 h, mean ± SE, n=6. The text has this: Using male ddY line mouse (body weight 35 to 45 g), a cerebral infarction model was produced and evaluated about neurological symptoms and the infarction area percentage according to methods similar to the production method and the evaluation method for the Mongolian gerbil cerebral infarction model.
The improvement effectiveness of SMTP-7 and alteplase on the infarction area percentage, the neurological symptom and the edema percentage was compared using the mouse cerebral infarction model. At the same time the dose dependence of the degree of improvement of SMTP-7 was investigated.
SMTP-7 and alteplase were prepared as in Example 2. Ten mg/kg each was administered into the femoral vein 1 hour or 3 hours after the initiation of ischemia in a mouse cerebral infarction model, wherein 10% was administered by a bolus administration, and the rest by continuous administration over 30 min. Further, 0.1 mg/kg or 1 mg/kg of SMTP-7 was administered into the femoral vein 1 hour after the initiation of ischemia in a mouse cerebral infarction model, wherein 10% was administered by a bolus administration, and the rest by continuous administration over 30 min. Six mice were used for each condition.
Twenty four hours after the initiation of the operation neurological symptom of each mouse was examined to rate the neurological symptom. Then the brain of each mouse was extirpated and the infarction area was measured and the infarction area percentage was determined. The edema percentage was determined according to the following formula: Edema percentage (%)=(Volume of the cerebral hemisphere affected by ischemia−Volume of the other side cerebral hemisphere)/Volume of the other side cerebral hemisphere×100 […]

The next experiment relates to IL-6. As to the kind of experiment: Real time RT-PCR of inflammation parameter IL-6 in brain of mouse cerebral infarction model. To be noted: 10 mg/kg, ipsilesional (right) brain at 24 h, mean ± SE, n=6. The protocol: as §1, §2, §3, §4, §5, §6, §7, §8, §9
The mark [2] stands for this setting: administration initiated 1 hr after ischemia.
Where [3] appears, read: 10 mg/kg femoral vein, administration initiated 1 hr after ischemia.
Where [4] appears, read: administration initiated 3 hr after ischemia.
Setting [5] is: 0.1 mg/kg femoral vein, administration 1 hour after ischemia.
The mark [6] stands for this setting: 1 mg/kg femoral vein, administration 1 hour after ischemia.
[7] abbreviates: 10 mg/kg femoral vein, administration initiated 3 hr after ischemia.

Marks after values point to notes of the source that are not given here.

As for `CC(C)=CCC/C(C)=C/CCC1(C)Oc2c(c(O)cc3c2CN(C(Cc2c[nH]c4ccccc24)C(=O)O)C3=O)CC1O` (stereo not drawn) [SMTP-6], the “TNF-α, relative value to β-actin” value in the experiment on TNF-α (setting [2]) is on record as 0.261 ± 0.119. The “IL-1β, relative value to β-actin” value with IL-1β (setting [2]) was found to be 0.165 ± 0.0930. In experiment [1] (setting [3]), this molecule showed an Edema percentage of 9.80 ± 2.74%, an Infarction area of 9.81 ± 1.43% and a Neurological scores of 3 ± 0.447. Further, in the experiment with IL-6 (setting [2]), the “IL-6, relative value to β-actin” value is 0.220 ± 0.0850.

In the case of `CC(C)=CCC/C(C)=C/CC[C@@]1(C)Oc2c(c(O)cc3c2CN(CCC[C@@H](C(=O)O)N2Cc4c(cc(O)c5c4O[C@](C)(CC/C=C(\C)CCC=C(C)C)[C@@H](O)C5)C2=O)C3=O)C[C@@H]1O` [SMTP-7], the “TNF-α, relative value to β-actin” value with TNF-α (setting [2]) came out at 0.151 ± 0.0313; in the experiment on TNF-α (setting [4]), 0.147 ± 0.0293. Further, the “IL-1β, relative value to β-actin” value with IL-1β (setting [2]) is given as 0.0314 ± 0.0171; in the experiment with IL-1β (setting [4]) it was 0.0728 ± 0.0380. The Edema percentage in experiment [1] (setting [5]) stood at 10.15 ± 1.817%; in experiment [1] (setting [6]), 8.81 ± 2.292%; in experiment [1] (setting [3]), 5.81 ± 0.967 %; in experiment [1] (setting [7]) it was 6.23 ± 1.07 %. Moreover, the Infarction area was found to be 10.08 ± 2.07% in experiment [1] (setting [5]), 6.66 ± 0.71 % in experiment [1] (setting [6]), 4.87 ± 1.06 % in experiment [1] (setting [3]) and 5.05 ± 0.576 % in experiment [1] (setting [7]). For the same molecule, the Neurological scores is listed as 2.5 ± 0.5 in experiment [1] (setting [5]), 2 ± 0.632 in experiment [1] (setting [6]), 1.67 ± 0.422 in experiment [1] (setting [3]) and 1.33 ± 0.558 in experiment [1] (setting [7]). For the same molecule, the “IL-6, relative value to β-actin” value came to 0.0356 ± 0.0138 in the experiment with IL-6 (setting [2]) and 0.0651 ± 0.0308 in the experiment with IL-6 (setting [4]).

Take alteplase [reference compound]: the “TNF-α, relative value to β-actin” value in the experiment on TNF-α (setting [2]) worked out at 0.164 ± 0.0332; in the experiment on TNF-α (setting [4]), 0.381 ± 0.155. The “IL-1β, relative value to β-actin” value was 0.0408 ± 0.0173 in the experiment with IL-1β (setting [2]) and 0.347 ± 0.172**^,## in the experiment with IL-1β (setting [4]). Moreover, the Edema percentage is recorded as 3.63 ± 2.67 % in experiment [1] (setting [3]) and 12.6 ± 1.84% in experiment [1] (setting [7]). Also, the Infarction area is listed as 6.15 ± 1.94 % in experiment [1] (setting [3]) and 11.9 ± 2.26% in experiment [1] (setting [7]). Further, the figures for the Neurological scores in experiment [1] (setting [3]) and in experiment [1] (setting [7]) were 1.17 ± 0.749 and 2.50 ± 0.500, respectively. For the same molecule, the entries for the “IL-6, relative value to β-actin” value in the experiment with IL-6 (setting [2]) and with IL-6 (setting [4]) were 0.0582 ± 0.0254 and 0.341 ± 0.138**^,#, respectively.
